Test results published in patent publication US7179825B2, “Retinoic acid mimetic anilides” (Janssen Pharmaceutica N.V., priority 1997, dated 2007).

What was measured:
[1] = tested on: metabolism of retinoic acid in human breast cancer cells; assay: Inhibition of retinoic acid (RA) metabolism (Example C.1); assay type: cell-based; conditions: MCF-7 human breast cancer cells, 3H-RA as substrate, concentration needed to reduce the amount of metabolites to 50% of the control
How it was run: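 MCF-7 cells, pre-stimulated with RA the day before, incubated with ³H-RA substrate and test compound in 1% DMSO. Polar ³H-metabolites separated from unmetabolized RA and counted by scintillation. IC50 is the concentration cutting metabolite formation to 50% of control, with blank run alongside.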

[2] = tested on: Ovariectomized rats; assay: Vaginal keratinization test on ovariectomized rats (Example C.2); assay type: in vivo; conditions: estradiol undecylate induced keratinization, per os once daily on days 1-3, active dose = 50% of rats show complete suppression; for minimal effective dose: Rattus norvegicus, po, read-out: LAD (lowest active dose)
How it was run: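 Ovariectomized rats given s.c. estradiol undecylate (100 μg per 100 g body weight in sesame oil), then oral compound once daily on days 1-3 (vehicle PEG 200). Vaginas assessed histologically one day after last dose; lowest active dose (mg/kg) is the dose giving complete keratinization suppression in 50% of rats.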

SMILES | IC50 [1] [nM] | IC50 ([1]; MCF7) [nM] | LAD (lowest active dose) [2] [mg/kg] | minimal effective dose [2] [mg/kg]
CCOc1c(F)c(F)c(/C=C(\C)C(=O)Nc2ccc(C(C(C)C)n3ccnc3)cc2)c(F)c1F (racemic) [Compound 606] | 13.6 | – | >10.00 | –
C/C(=C\c1ccc(F)c(Br)c1)C(=O)Nc1ccc(C(C(C)C)n2ccnc2)cc1 (racemic) [Compound 608] | 6.61 | – | >10.00 | –
C/C(=C\c1ccc(C(F)(F)F)cc1F)C(=O)Nc1ccc(C(C(C)C)n2ccnc2)cc1 (racemic) [Compound 609] | 10.9 | – | 10.00 | –
C/C(=C\c1ccc([N+](=O)[O-])cc1)C(=O)Nc1ccc(C(C(C)C)n2ccnc2)cc1 (racemic) [Compound 610] | 6.53 | – | >10.00 | –
C/C(=C\c1ccc(N)cc1)C(=O)Nc1ccc(C(C(C)C)n2ccnc2)cc1 (racemic) [Compound 611, (±)-(E)-2-[(4-aminophenyl)methylene]-N-[4-[1-(1H-imidazol-1-yl)-2-methylpropyl]phenyl]propanamide] | – | 3.42 | – | 10
O=C(Cc1ccccc1)Nc1ccc(C(c2cccc(C(F)(F)F)c2)n2cncn2)cc1 (racemic) [Compound 614] | 278 | – | >20.00 | –
O=C(/C=C/c1ccccc1)Nc1ccc(C(c2cccc(F)c2)n2cncn2)cc1 (racemic) [Compound 618] | 15.7 | – | >20.00 | –
O=C(Cc1ccccc1)Nc1ccc(C(c2cccc(F)c2)n2cncn2)cc1 (racemic) [Compound 619] | 35.7 | – | >20.00 | –
CC(C)C(c1ccc(NC(=O)Cc2cccc(Cl)c2)cc1)n1ccnc1 (racemic) [Compound 652] | > 100 | – | 10.00 | –
CC(C)C(c1ccc(NC(=O)C(c2ccccc2)c2ccccc2)cc1)n1ccnc1 (racemic) [Compound 655] | 16.1 | – | >10.00 | –
CC(C)C(C(=O)Nc1ccc(C(C(C)C)n2ccnc2)cc1)c1ccccc1 (racemic) [Compound 658] | 5.48 | – | >10.00 | –
COc1cccc(CC(=O)Nc2ccc(C(C(C)C)n3ccnc3)cc2)c1 (racemic) [Compound 665] | 5.91 | – | 2.50 | –
Cc1ccc(CC(=O)Nc2ccc(C(C(C)C)n3ccnc3)cc2)cc1 (racemic) [Compound 666] | 14.5 | – | 2.50 | –
C/C(=C\c1ccccc1)C(=O)Nc1ccc(C(c2cccnc2)C(C)C)cc1 (racemic) [Compound 679] | > 1000 | – | >20.00 | –
C/C(=C\c1ccccc1)C(=O)Nc1ccc(C(c2ccncc2)C(C)C)cc1 (racemic) [Compound 681] | > 1000 | – | >20.00 | –
CC(C)C(c1ccc(NC(=O)Cc2ccc(Cl)cc2)cc1)c1cccnc1 (racemic) [Compound 686] | 43.1 | – | >10.00 | –
CC(C)C(c1ccc(NC(=O)Nc2cccc(F)c2)cc1)c1cccnc1 (racemic) [Compound 690] | > 100 | – | >10.00 | –

SMILES | IC50 [1] [nM] | IC50 ([1]; MCF7) [nM] | LAD (lowest active dose) [2] [mg/kg] | minimal effective dose [2] [mg/kg]
CC(C)C(c1ccncc1)c1ccc(NC(=O)Nc2cccc(F)c2)cc1 (racemic) [Compound 692] | 38 | – | >10.00 | –
CNC(=S)Nc1ccc(C(C(C)C)n2ccnc2)cc1 (racemic) [Compound 696] | 8.07 | – | >10.00 | –
CC(C)C(c1ccc(NC(=S)Nc2ccccc2)cc1)n1ccnc1 (racemic) [Compound 697] | 17.1 | – | 10.00 | –
CC(C)C(c1ccc(NC(=S)NC(=O)c2ccccc2)cc1)n1ccnc1 (racemic) [Compound 698, (±)-N-benzoyl-N′-[4-[1-(1H-imidazol-1-yl)-2-methylpropyl]phenyl]thiourea] | – | 39.6 | – | 20
CC(C)C(c1ccc(NC(=S)Nc2ccccc2F)cc1)n1ccnc1 (racemic) [Compound 700] | 12 | – | 5.00 | –
CCOc1ccc(NC(=O)Nc2ccc(C(C(C)C)n3ccnc3)cc2)cc1 (racemic) [Compound 707] | 13 | – | 5.00 | –
O=C(Nc1ccc(C(c2cccc(C(F)(F)F)c2)n2ccnc2)cc1)Nc1cc(F)ccc1F (racemic) [Compound 709] | 2.4 | – | 5.00 | –
O=C(Nc1ccc(C(c2cccc(C(F)(F)F)c2)n2cncn2)cc1)Nc1cccc(F)c1 (racemic) [Compound 711] | > 100 | – | 5.00 | –
COc1ccc(NC(=O)Nc2ccc(C(C(C)C)n3ccnc3)cc2)cc1 (racemic) [Compound 722] | 4.14 | – | 5.00 | –
CC(C)C(c1ccc(NC(=O)Nc2cccc(F)c2)cc1)n1cncn1 (racemic) [Compound 725] | 3.29 | – | 5.00 | –
CC(C)C(c1ccc(NC(=O)Nc2ccccc2F)cc1)n1ccnc1 (racemic) [Compound 726] | 3.71 | – | 5.00 | –
O=C(Nc1ccc(C(c2cccc(C(F)(F)F)c2)n2ccnc2)cc1)Nc1cccc(F)c1 (racemic) [Compound 729] | > 100 | – | 2.50 | –
CC(C)C(c1ccc(NC(=O)Nc2cccc(C(F)(F)F)c2)cc1)n1ccnc1 (racemic) [Compound 730] | 15.9 | – | >10.00 | –
CC(C)C(c1ccc(NC(=O)Nc2ccc(Cl)c(Cl)c2)cc1)n1ccnc1 (racemic) [Compound 732] | 19.3 | – | >10.00 | –
COc1cccc(NC(=O)Nc2ccc(C(C(C)C)n3ccnc3)cc2)c1 (racemic) [Compound 733] | 2.41 | – | >10.00 | –
O=C(Nc1ccc(C(c2ccccc2)n2ccnc2)cc1)Nc1cccc(F)c1 (racemic) [Compound 735] | > 100 | – | 10.00 | –
Cc1cccc(NC(=O)Nc2ccc(C(C(C)C)n3ccnc3)cc2)c1 (racemic) [Compound 736] | 7.45 | – | >10.00 | –

Continued, in another order:

IC50 [1] [nM] | IC50 ([1]; MCF7) [nM] | SMILES | LAD (lowest active dose) [2] [mg/kg] | minimal effective dose [2] [mg/kg]
1.25 | – | CCC(CC)C(c1ccc(NC(=O)C2Oc3ccccc3O2)cc1)n1cncn1 (racemic) [Compound 621] | 1.25 | –
1.38 | – | CC(C)(C)CC(c1ccc(NC(=O)Cc2ccc(Cl)cc2)cc1)n1cncn1 (racemic) [Compound 623] | >5.00 | –
1.68 | – | CCCC(C)C(c1ccc(NC(=O)Cc2ccc(OC)c(OC)c2)cc1)n1cncn1 (racemic) [Compound 639] | 2.50 | –
0.296 | – | CCCC(CCC)C(c1ccc(NC(=O)Cc2ccc(OC)c(OC)c2)cc1)n1cncn1 (racemic) [Compound 644] | 2.50 | –
1.34 | – | CC(C)C(c1ccc(NC(=O)Cc2ccc(F)cc2)cc1)n1ccnc1 (racemic) [Compound 653] | 5.00 | –
2.34 | – | CC(C)C(c1ccc(NC(=O)Cc2cccc(C(F)(F)F)c2)cc1)n1ccnc1 (racemic) [Compound 654] | 5.00 | –
1.95 | – | CCOc1ccc(CC(=O)Nc2ccc(C(C(C)C)n3ccnc3)cc2)cc1 (racemic) [Compound 663] | 2.50 | –
1.57 | – | CC(C)C(c1ccc(NC(=O)Cc2cccc(O)c2)cc1)n1ccnc1 (racemic) [Compound 667] | 5.00 | –
1.61 | – | COc1ccc(NC(=O)Nc2ccc(C(C(C)C)n3ccnc3)cc2)cc1OC (racemic) [Compound 708] | >5.00 | –
0.188 | – | CCC(CC)C(c1ccc(NC(=O)Nc2cc(F)ccc2F)cc1)n1ccnc1 (racemic) [Compound 710] | 2.50 | –
0.0043 | – | CCC(CC)C(c1ccc(NC(=O)Nc2cc(F)ccc2F)cc1)n1cncn1 (racemic) [Compound 712] | 5.00 | –
1.38 | – | CCC(CC)C(c1ccc(NC(=O)Nc2ccccc2F)cc1)n1ccnc1 (racemic) [Compound 713] | 2.50 | –
0.154 | – | CCC(CC)C(c1ccc(NC(=O)Nc2ccccc2F)cc1)n1cncn1 (racemic) [Compound 715] | >2.50 | –
0.133 | – | CCC(CC)C(c1ccc(NC(=O)Nc2ccc(OC)c(OC)c2)cc1)n1cncn1 (racemic) [Compound 718] | 2.50 | –
1.13 | – | CCC(CC)C(c1ccc(NC(=O)Nc2cccc(F)c2)cc1)n1cncn1 (racemic) [Compound 723] | 5.00 | –
1.18 | – | CCC(CC)C(c1ccc(NC(=O)Nc2cccc(F)c2)cc1)n1ccnc1 (racemic) [Compound 724] | 2.50 | –
1.64 | – | CC(C)C(c1ccc(NC(=O)Nc2cccc(N)c2)cc1)n1ccnc1 (racemic) [Compound 727] | >10.00 | –
1.41 | – | CC(C)C(c1ccc(NC(=O)Nc2cc(F)ccc2F)cc1)n1ccnc1 (racemic) [Compound 728] | 5.00 | –
2.25 | – | CC(C)C(c1ccc(NC(=O)Nc2ccc(F)cc2F)cc1)n1ccnc1 (racemic) [Compound 734] | 10.00 | –
